According to PMC13510729, “Multiheme selenoenzyme essential for elemental sulfur respiration” (Science Advances, 2026):

Tested on: T1, MccSep
T1 construct: selenoprotein read through an in-frame UGA (Sec325) joining gsu2937 and gsu2936, databases may hold it as two ORFs; C-terminal Factor Xa site and Strep-tag; expressed in G. sulfurreducens PCA delta-mccsep; five heme c per subunit; about 49 kDa; homotetramer of 200 kDa
Test: spectrophotometric oxidation of reduced methyl viologen at […] nm, allosteric sigmoidal fit
Type: biochemical, Geobacter sulfurreducens
Conditions: reduced methyl viologen (0.3 mM) with 0.075 mM dithionite, 2 mM CaCl2, 50 mM Bicine-NaOH pH 8.5, 30 °C, anaerobic; Hill coefficient 1.5 ± 0.1; read-out: apparent K0.5

O=[Se](O)O [selenite]
Km: 990 ± 40 µM
